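Step 1: Grow cells in 96-well plates. Step 2: Expose to compound for 48 hours at 5 concentrations. Step 3: Interpolate endpoints linearly; if unreached, use highest concentration. Abbreviation: GI50, concentration required for 50% inhibition of growth. TGI marks complete inhibition of growth.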
Tests used:
Test in all cases: DTP human tumour cell line panel, 48 h; in the data active = GI50 below about 0.43 µM; inactive = the rest
OVCAR-5 ovarian = test system: OVCAR-5 ovarian
SF-268 CNS = test system: SF-268 CNS
NCI-H226 lung = test system: NCI-H226 lung
NCI-H460 lung = test system: NCI-H460 lung
NCI/ADR-RES ovarian = test system: NCI/ADR-RES ovarian
KM12 colon = test system: KM12 colon
SW-620 colon = test system: SW-620 colon
SK-MEL-28 melanoma = test system: SK-MEL-28 melanoma
CCRF-CEM leukemia = test system: CCRF-CEM leukemia
A549 NSCLC = test system: A549 NSCLC
T-47D breast = test system: T-47D breast
NCI-H522 lung = test system: NCI-H522 lung
MCF7 breast = test system: MCF7 breast
SK-OV-3 ovarian = test system: SK-OV-3 ovarian
RPMI-8226 leukemia = test system: RPMI-8226 leukemia
UO-31 renal = test system: UO-31 renal
NCI-H23 lung = test system: NCI-H23 lung
IGROV1 ovarian = test system: IGROV1 ovarian
UACC-62 melanoma = test system: UACC-62 melanoma
HOP-92 NSCLC = test system: HOP-92 NSCLC
HCT-116 colon = test system: HCT-116 colon
K-562 leukemia = test system: K-562 leukemia
HCC-2998 colon = test system: HCC-2998 colon
SNB-19 CNS = test system: SNB-19 CNS
ACHN renal = test system: ACHN renal
A498 renal = test system: A498 renal
MOLT-4 leukemia = test system: MOLT-4 leukemia
MDA-MB-231 breast = test system: MDA-MB-231 breast
SK-MEL-5 melanoma = test system: SK-MEL-5 melanoma
OVCAR-3 ovarian = test system: OVCAR-3 ovarian
DU-145 prostate = test system: DU-145 prostate
MDA-MB-435 = test system: MDA-MB-435
CAKI-1 renal = test system: CAKI-1 renal
HOP-62 NSCLC = test system: HOP-62 NSCLC
OVCAR-4 ovarian = test system: OVCAR-4 ovarian
OVCAR-8 ovarian = test system: OVCAR-8 ovarian
U251 CNS = test system: U251 CNS
BT-549 breast = test system: BT-549 breast
LOX IMVI melanoma = test system: LOX IMVI melanoma
PC-3 prostate = test system: PC-3 prostate
HCT-15 colon = test system: HCT-15 colon
UACC-257 melanoma = test system: UACC-257 melanoma
SK-MEL-2 melanoma = test system: SK-MEL-2 melanoma
COLO 205 colon = test system: COLO 205 colon
SN12C renal = test system: SN12C renal
HS 578T breast = test system: HS 578T breast
M14 melanoma = test system: M14 melanoma
786-0 renal = test system: 786-0 renal
TK-10 renal = test system: TK-10 renal
HT29 colon = test system: HT29 colon
MALME-3M melanoma = test system: MALME-3M melanoma
SR leukemia = test system: SR leukemia
EKVX NSCLC = test system: EKVX NSCLC

COc1ccc2nc(NC(=O)COc3cc(/C=C\c4cc(OC)c(OC)c(OC)c4)ccc3OC)sc2c1
38.4 µM: TGI (SK-MEL-5 melanoma)
5.02 µM: TGI (OVCAR-3 ovarian)
7.46 µM: TGI (NCI/ADR-RES ovarian)
21.2 µM: TGI (KM12 colon)
6.96 µM: TGI (DU-145 prostate)
6.44 µM: TGI (MDA-MB-435)
> 100 µM: TGI (OVCAR-5 ovarian) | TGI (SF-268 CNS) | TGI (NCI-H226 lung) | TGI (NCI-H460 lung) | TGI (SW-620 colon) | TGI (SK-MEL-28 melanoma) | TGI (CCRF-CEM leukemia) | TGI (A549 NSCLC) | TGI (T-47D breast) | TGI (NCI-H522 lung) | TGI (MCF7 breast) | TGI (SK-OV-3 ovarian) | TGI (RPMI-8226 leukemia) | TGI (UO-31 renal) | TGI (NCI-H23 lung) | TGI (IGROV1 ovarian) | TGI (UACC-62 melanoma) | TGI (HOP-92 NSCLC) | TGI (HCT-116 colon) | TGI (K-562 leukemia) | TGI (HCC-2998 colon) | TGI (SNB-19 CNS) | TGI (ACHN renal) | TGI (A498 renal) | TGI (MOLT-4 leukemia) | TGI (MDA-MB-231 breast) | TGI (CAKI-1 renal) | TGI (HOP-62 NSCLC) | TGI (OVCAR-4 ovarian) | TGI (OVCAR-8 ovarian) | TGI (U251 CNS) | TGI (BT-549 breast) | TGI (LOX IMVI melanoma) | TGI (PC-3 prostate) | TGI (HCT-15 colon) | TGI (UACC-257 melanoma) | TGI (SK-MEL-2 melanoma) | TGI (COLO 205 colon) | TGI (SN12C renal) | TGI (HS 578T breast) | TGI (M14 melanoma) | TGI (786-0 renal) | TGI (TK-10 renal) | TGI (HT29 colon) | TGI (MALME-3M melanoma) | TGI (SR leukemia) | TGI (EKVX NSCLC)
inactive: GI50 (OVCAR-5 ovarian) 5.89 µM | GI50 (SF-268 CNS) 4.31 µM | GI50 (NCI-H226 lung) 4.51 µM | GI50 (NCI-H460 lung) 3.73 µM | GI50 (NCI/ADR-RES ovarian) 2.3 µM | GI50 (KM12 colon) 3.12 µM | GI50 (SW-620 colon) 5.1 µM | GI50 (SK-MEL-28 melanoma) 4.41 µM | GI50 (CCRF-CEM leukemia) 3.87 µM | GI50 (A549 NSCLC) 5.18 µM | GI50 (T-47D breast) 4.03 µM | GI50 (NCI-H522 lung) 3.09 µM | GI50 (MCF7 breast) 2.88 µM | GI50 (SK-OV-3 ovarian) 4.69 µM | GI50 (RPMI-8226 leukemia) 5.43 µM | GI50 (UO-31 renal) 4.31 µM | GI50 (NCI-H23 lung) 3.91 µM | GI50 (IGROV1 ovarian) 7 µM | GI50 (UACC-62 melanoma) 5.93 µM | GI50 (HOP-92 NSCLC) 6.28 µM | GI50 (HCT-116 colon) 3.7 µM | GI50 (K-562 leukemia) 3.6 µM | GI50 (HCC-2998 colon) 7.35 µM | GI50 (SNB-19 CNS) 6.3 µM | GI50 (ACHN renal) 7.77 µM | GI50 (A498 renal) 3.5 µM | GI50 (MOLT-4 leukemia) 3.87 µM | GI50 (MDA-MB-231 breast) 5.4 µM | GI50 (SK-MEL-5 melanoma) 2.68 µM | GI50 (OVCAR-3 ovarian) 2.17 µM | GI50 (DU-145 prostate) 2.04 µM | GI50 (MDA-MB-435) 1.16 µM | GI50 (CAKI-1 renal) 3.2 µM | GI50 (HOP-62 NSCLC) 23.3 µM | GI50 (OVCAR-4 ovarian) 5.31 µM | GI50 (OVCAR-8 ovarian) 5.28 µM | GI50 (U251 CNS) 4 µM | GI50 (BT-549 breast) 21.2 µM | GI50 (LOX IMVI melanoma) 4.17 µM | GI50 (PC-3 prostate) 4.45 µM | GI50 (HCT-15 colon) 2.89 µM | GI50 (UACC-257 melanoma) 63.9 µM | GI50 (SK-MEL-2 melanoma) 4.07 µM | GI50 (COLO 205 colon) 3.89 µM | GI50 (SN12C renal) 5.75 µM | GI50 (HS 578T breast) 4.15 µM | GI50 (M14 melanoma) 4.33 µM | GI50 (786-0 renal) 7.52 µM | GI50 (TK-10 renal) 7.54 µM | GI50 (HT29 colon) 3.34 µM | GI50 (MALME-3M melanoma) > 100 µM | GI50 (SR leukemia) 3.69 µM | GI50 (EKVX NSCLC) 5.11 µM
